In brackets after ≈: the same amount, converted by molar mass. Several values for one entry are separate records, joined by “and”; a condition that tells them apart may be missing. Identical values can stand only once.
Legend:
Unfractionated heparin = experiment: aPTT clotting assay, UFH 0.4 U/mL in plasma (Example 10); assay type: biochemical; settings: unfractionated heparin 0.4 U/mL in plasma; aPTT clotting
Description: aPTT clotting Assay: Unfractionated heparin was mixed with plasma at a final concentration of 0.4 U/mL (or concentration which increases aPTT time to between 120 and 300 seconds). […] The ACL Elite Hemostasis analyzer (Beckman Coulter™) was used to add aPTT reagent (HemosIL SynthASil) to supplemented plasma. Clotting was initiated by addition of CaCl2 and time to clot was recorded.

UFH = experiment: FXa amidolytic assay (Example 10), UFH; settings: read-out: Heparin FXa uM EC50; UFH 0.03 units/mL; human antithrombin, bovine Factor Xa
Description: (§1) Two μl of test agent are added (range between 0.01 and 23 ug/ml) and incubated for 5 minutes at 23° C. Bovine Factor Xa was added to a final concentration of 0.636 nkat/mL and incubated for a further 10 minutes at 23° C.

enoxaparin = experiment: FXa amidolytic assay (Example 10), enoxaparin; settings: read-out: Enox FXa EC50; enoxaparin 0.1 ug/ml; human antithrombin, bovine Factor Xa
Description: as §1

tinzaparin = experiment: FXa amidolytic assay (Example 10), tinzaparin; settings: read-out: Tinzap FXa EC50; tinzaparin 0.1 ug/ml; human antithrombin, bovine Factor Xa
Description: as §1

fondaparinux = experiment: FXa amidolytic assay (Example 10), fondaparinux; settings: read-out: Fondap FXa EC50; fondaparinux 0.02 μg/mL; human antithrombin, bovine Factor Xa
Description: as §1

[1] = test system: isolated human erythrocytes; experiment: in vitro; assay type: cell-based; settings: human RBC, 1 hour at 37° C.; for EC50: Homo sapiens, Erythrocyte, 1 h, read-out: Hemolysis EC50
Description: Hemolysis assay: Cytotoxicity was also evaluated in a hemolysis assay using isolated human erythrocytes. Pooled whole human blood was centrifuged to separate the red blood cells (RBC). The isolated RBCs were rinsed and diluted in Tris-buffered saline (TBS buffer, pH 7.4) to obtain a 0.22% RBC stock suspension. Serial two-fold dilutions of test agent were assayed over a concentration range of 1000 to 0.48 μg/ml with shaking for 1 hour at 37° C. At the conclusion of the incubation time, samples were centrifuged and 30 μl of the supernatant was added to 100 μl H2O. OD405 measurements were read for hemoglobin concentration. The bee venom peptide melittin was used as a positive control. EC50 values were determined using a four parameter logistic equation: Y=Bottom+(Top-Bottom)/(1+10̂((LogEC50-X)*HillSlope)).

Row | Compound | EC50 (Unfractionated heparin) [nM] | EC50 (UFH) [µM] | EC50 (enoxaparin) | EC50 (tinzaparin) | EC50 (fondaparinux) | Hemolysis EC50 [1] | EC50 [1] [µg/mL]
1 | COc1ccc(NC(=O)[C@@H](CCCNC(=N)N)NC(=O)c2cc(NC(=O)[C@@H](CCCNC(=N)N)NC(=O)c3cc(NC(=O)[C@@H](CCCNC(N)=O)NC(=O)c4cc(NC(=O)[C@H](N)CCCNC(=N)N)ccc4OC)ccc3OC)ccc2OC)cc1C(N)=O [Compound 219] | 1170 | 0.153 | 95 nM | 187 nM | 731 nM |  | 
2 | COc1ccc(NC(=O)[C@H](CCCCCN)NC(=O)c2cc(NC(=O)[C@H](CCCCCN)NC(=O)c3cc(NC(=O)[C@H](CCCCCN)NC(=O)c4cc(NC(=O)[C@@H](N)CCCCCN)ccc4OC)ccc3OC)ccc2OC)cc1C(N)=O [Compound 236] | 1930 | 0.364 | 99 nM | 396 nM | > 12600 nM |  | 
3 | COc1ccc(C(=O)N[C@@H](CCCCN)C(=O)Nc2ccc(OC)c(C(=O)N[C@@H](CCCCN)C(=O)Nc3ccc(OC)c(C(=O)N[C@@H](CCCCN)C(=O)Nc4ccc(OC)c(C(N)=O)c4)c3)c2)cc1NC(=O)[C@@H](N)CCCCN [Compound 237] | 1140 | 0.199 | 177 nM and 341 nM | 109 nM and 121 nM | 3620 nM and 3730 nM |  | 
4 | COc1ccc(NC(=O)[C@H](CCCCN)NC(=O)c2cc(NC(=O)[C@H](CCCCN)NC(=O)c3cc(NC(=O)[C@H](CCCCN)NC(=O)c4cc(NC(=O)[C@@H](N)CCCCN)ccc4OC)ccc3OC)ccc2OC)cc1C(=O)N[C@@H](Cc1ccc(O)cc1)C(=O)O [Compound 265] | 1450 |  | 138 nM | 120 nM | 385 nM | no significant decrease | 
5 | COc1ccc(NC(=O)[C@@H](CCCNC(=N)N)NC(=O)c2cc(NC(=O)[C@@H](CCCNC(=N)N)NC(=O)c3cc(NC(=O)[C@@H](CCCNC(=N)N)NC(=O)c4cc(NC(=O)[C@H](N)CCCNC(=N)N)ccc4OC)ccc3OC)ccc2OC)cc1C(=O)NCC(=O)O [Compound 278] | 1990 |  | 150 nM | 132 nM | 408 nM | no significant decrease | 
6 | COc1ccc(NC(=O)[C@H](CCCNC(=N)N)NC(=O)c2cc(NC(=O)[C@H](CCCNC(=N)N)NC(=O)c3cc(NC(=O)[C@H](CCCNC(=N)N)NC(=O)c4cc(NC(=O)[C@@H](N)CCCNC(=N)N)ccc4OC)ccc3OCC(=O)O)ccc2OC)cc1C(N)=O [Compound 288] | 2020 |  | 119 nM | 102 nM | 390 nM | no significant decrease | 
7 | COc1ccc(NC(=O)[C@H](CCCNC(=N)N)NC(=O)c2cc(NC(=O)[C@H](CCCNC(=N)N)NC(=O)c3cc(NC(=O)[C@H](CCCNC(=N)N)NC(=O)c4cc(NC(C)=O)ccc4OC)ccc3OC)ccc2OC)cc1C(N)=O [Compound 298] | 2060 |  | 201 nM | 167 nM | 334 nM | no significant decrease | 
8 | COc1ccc(NC(=O)[C@@H](CCCNC(=N)N)NC(=O)c2cc(NC(=O)[C@@H](CCCNC(=N)N)NC(=O)c3cc(NC(=O)[C@@H](CCCNC(=N)N)NC(=O)c4cc(NC(=O)[C@H](N)CCCNC(=N)N)ccc4OC)ccc3OC)ccc2OC)cc1C(=O)N[C@H](Cc1c[nH]c2ccccc12)C(=O)O [Compound 303] | > 10000 |  | 192 nM | 189 nM | 146 nM |  | ~500 (≈ 351 µM)
9 | COc1ccc(NC(=O)[C@@H](CCCNC(=N)N)NC(=O)c2cc(NC(=O)[C@@H](CCCNC(=N)N)NC(=O)c3cc(NC(=O)[C@@H](CCCNC(=N)N)NC(=O)c4cc(NC(=O)[C@H](N)CCCNC(=N)N)ccc4OC)ccc3OCC(=O)O)ccc2OC)cc1C(=O)N[C@H](Cc1c[nH]c2ccccc12)C(N)=O [Compound 307] | 3780 |  | 120 nM | 118 nM | 118 nM |  | ~50 (≈ 34 µM)
10 | COc1ccc(NC(=O)[C@@H](CCCNC(=N)N)NC(=O)c2cc(NC(=O)[C@@H](CCCNC(=N)N)NC(=O)c3cc(NC(=O)[C@@H](CCCNC(=N)N)NC(=O)c4cc(NC(C)=O)ccc4OC)ccc3OCC(=O)O)ccc2OC)cc1C(=O)N[C@H](Cc1c[nH]c2ccccc12)C(N)=O [Compound 308] | > 10000 |  | 157 nM | 136 nM | 192 nM |  | ~500 (≈ 369 µM)
11 | COc1ccc(NC(=O)[C@H](CCCCN)NC(=O)c2cc(NC(=O)[C@H](CCCCN)NC(=O)c3cc(NC(=O)[C@H](CCC(=O)O)NC(=O)c4cc(NC(=O)[C@@H](N)CCCCN)ccc4OC)ccc3OC)ccc2OC)cc1C(N)=O [Compound 317] | 1610 |  | 293 nM | 178 nM | 873 nM |  | > 1000
12 | COc1ccc(NC(=O)[C@@H](CCCNC(=N)N)NC(=O)c2cc(NC(=O)[C@@H](CCCNC(=N)N)NC(=O)c3cc(NC(=O)[C@@H](CCC(=O)O)NC(=O)c4cc(NC(=O)[C@H](N)CCCNC(=N)N)ccc4OC)ccc3OC)ccc2OC)cc1C(N)=O [Compound 321] | 1820 |  | 441 nM | 225 nM | 2690 nM |  | > 1000
13 | COc1ccc(NC(=O)[C@H](CCCNC(=N)N)NC(=O)c2cc(NC(=O)[C@H](CCCNC(=N)N)NC(=O)c3cc(NC(=O)[C@H](CCC(=O)O)NC(=O)c4cc(NC(=O)[C@@H](N)CCCNC(=N)N)ccc4OC)ccc3OC)ccc2OC)cc1C(N)=O [Compound 325] | 2700 |  | 505 nM | 213 nM | 2230 nM |  | > 1000
14 | COc1ccc(NC(=O)[C@H](CCCCN)NC(=O)c2cc(NC(=O)[C@H](CCCCN)NC(=O)c3cc(NC(=O)[C@H](CCCCN)NC(=O)c4cc(NC(=O)[C@@H](N)Cc5c[nH]c6ccccc56)ccc4OC)ccc3OC)ccc2OCC(=O)O)cc1C(=O)N[C@@H](Cc1c[nH]c2ccccc12)C(N)=O [Compound 334] | > 10000 |  | 249 nM | 281 nM | 224 nM |  | ~15 (≈ 10.6 µM)
15 | CNCNC(=O)c1cccc(C(=O)N[C@H]2CC[C@H](NC(=O)c3cc(C(=O)N[C@H]4CC[C@H](NC(=O)c5cccc(C(=O)NCCN)c5)CC4)c(OC)cc3OC)CC2)c1 [Compound 366] | > 10000 | 15.5 | > 5000 nM | > 5000 nM | > 10000 nM |  | 
16 | COc1cc(OC)c(C(=O)N[C@H]2CC[C@@H](NC(=O)c3cc(C(=O)NCCN)c(OCCCCCN)cc3OCCCCCN)CC2)cc1C(=O)N[C@H]1CC[C@@H](NC(=O)c2cc(C(=O)NCCN)c(OCCCCCN)cc2OCCCCCN)CC1 [Compound 367] | 1270 | 0.085 | 42 nM | 106 nM | 514 nM |  | 
17 | NCCCC[C@H](NC(=O)c1cccc(NC(=O)[C@H](CCCCN)NC(=O)c2cccc(NC(=O)[C@H](CCCCN)NC(=O)c3cccc(NC(=O)[C@@H](N)CCCCN)c3)c2)c1)C(=O)Nc1cccc(C(N)=O)c1 [Compound 368] | 9250 | 3.69 | 11000 nM | 3390 nM | > 10000 nM |  | 
18 | COc1ccc(NC(=O)[C@@H](CCCNC(=N)N)NC(=O)c2cc(NC(=O)[C@@H](CCCNC(N)=O)NC(=O)c3cc(NC(=O)[C@@H](CCCNC(N)=O)NC(=O)c4cc(NC(=O)[C@H](N)CCCNC(N)=O)ccc4OC)ccc3OC)ccc2OC)cc1C(N)=O [Compound 370] | 1460 | 12.5 | 463 nM | 259 nM | > 10000 nM |  | 
19 | COc1ccc(NC(=O)[C@@H](CCCNC(N)=O)NC(=O)c2cc(NC(=O)[C@@H](CCCNC(=N)N)NC(=O)c3cc(NC(=O)[C@@H](CCCNC(N)=O)NC(=O)c4cc(NC(=O)[C@H](N)CCCNC(N)=O)ccc4OC)ccc3OC)ccc2OC)cc1C(N)=O [Compound 371] | 3260 | > 10 | 252 nM | 197 nM | > 10000 nM |  | 
20 | COc1ccc(NC(=O)[C@@H](CCCNC(N)=O)NC(=O)c2cc(NC(=O)[C@@H](CCCNC(N)=O)NC(=O)c3cc(NC(=O)[C@@H](CCCNC(=N)N)NC(=O)c4cc(NC(=O)[C@H](N)CCCNC(N)=O)ccc4OC)ccc3OC)ccc2OC)cc1C(N)=O [Compound 372] | 2970 | > 10 | 225 nM | 150 nM | 544 nM |  | 
21 | COc1ccc(NC(=O)[C@@H](CCCNC(N)=O)NC(=O)c2cc(NC(=O)[C@@H](CCCNC(N)=O)NC(=O)c3cc(NC(=O)[C@@H](CCCNC(N)=O)NC(=O)c4cc(NC(=O)[C@H](N)CCCNC(=N)N)ccc4OC)ccc3OC)ccc2OC)cc1C(N)=O [Compound 373] | 2360 | > 10 | 123 nM | 123 nM | > 10000 nM |  | 
22 | COc1cc(OC)c(C(=O)NCCNC(=O)c2cc(C(=O)NCCNC(=O)c3cc(C(=O)NCCN)c(OC)cc3OC)c(OC)cc2OC)cc1C(=O)NCCN [Compound 386] |  | 19.4 | > 5000 nM | 7240 nM | > 10000 nM |  | 

From patent US20110178104A1, “Anti-Heparin Compounds” (POLYMEDIX INC., priority 2010, published 2011)
